The nature of data set [1]: Cell permeability in CACO-2 cells. It counts as in vitro ADME. The settings on record: human, read-out: Efflux Ratio (B-A/A-B). (In general: Caco-2 monolayers are a common model of the intestinal barrier.)
The subject of data set [2] is HEK293T (kidney). In words: CellTitre Glo in vitro cytotoxicity, HEK293T. The format is cell-based, human. The settings on record: prodrug versus AMS.
Data set [3] relates to primary T-cells. In words: CellTitre Glo in vitro cytotoxicity, primary T cells. The format is cell-based. The settings on record: prodrug versus AMS.
Data set [4] deals with myeloid leukemia cell line SET2. In words: Cytotoxicity, SET2. The format is cell-based. The settings on record: Set2, prodrug versus AMS.
Data set [5] deals with SET2 cells. As to the kind of experiment: SET2 viability with prodrug plus enzyme or enzyme-containing supernatant. The settings on record: increasing prodrug. The format is cell-based. As for the experimental part: Recombinant CPG2 protein was initially synthesized, purified (FIGS. 18A and 18B), and incubated with increasing concentrations of prodrug in a glutamate release assay (FIG. 17C). Mass spectrometry was used to determine that the glutamate moiety was released from all of the glutamate prodrugs.
Cell viability was measured by CellTitre-Glo® luminescence assay.
To determine to respective enzyme output of the Beta-lactamase constructs relative to the previous CPG2 constructs, a quantitative sandwich ELISA was used to determine the concentration (ng/mL) of purified recombinant CPG2, and a quantitative nitrocefin assay was used to determine the concentration (ng/mL) of purified recombinant Beta-lactamase (FIG. 25A). Cell viability was measured by CellTitre-Glo® luminescence in the presence of prodrug (glut-AMS or ceph-AMS) and varying concentrations of purified recombinant CPG2 or Beta-lactamase (FIG. 25B).

For data set [6], the system named is HEK293T cells expressing CPG2 variants. In words: Viability of HEK293T cells expressing CPG2 variants exposed to prodrug. It counts as cell-based, human. As for the experimental part: FIG. 9 provides exemplary data showing that that cell-secreted and transmembrane CPG2 expressed in stably transfected cells activates an AIS prodrug. Expression of CPG2 without a signal peptide (CPG2nosigp) was employed as a control. 293t cells stably transfected with CPG2 variants were exposed to P-AMS (1 μM) for 48 hours and analyzed by bright field microscopy (FIG. 9A). Cells were exposed to varying concentrations of P-AMS and cell viability was analyzed at 48 hr post treatment (FIG. 9B).
Expression of CPG2 without a signal peptide (CPG2nosigp) was employed as a control. HEK293t cells stably transfected with CPG2 variants were exposed to P-AMS (1 μM) for 48 hours and analyzed by bright field microscopy (FIG. 9A). Cells were exposed to varying concentrations of P-AMS and cell viability was analyzed at 48 hr post treatment (FIG. 9B).

Data set [7] has as its system endogenous glutamate carboxypeptidase expressed in human prostate cells. In words: Prodrug stability towards endogenous glutamate carboxypeptidase, LNCap viability. The format is cell-based. From the text:
This prodrug/drug combination was chosen for further development of the SEAKER systems.

For data set [8] the following is noted: mouse, in vivo.
The nature of data set [9]: in vivo. The settings on record: NOD, mouse.

What is called half-life is how long it takes for the measured level to halve. Low readings indicate fast loss, high ones slow loss.

The structures appear in SMILES notation. Read-outs that look alike come from different tables or passages of the source.

On to `CN(C)C(=O)C(CCN1CCC(O)(c2ccc(Cl)cc2)CC1)(c1ccccc1)c1ccccc1` [Loperamide], for which the efflux ratio was determined as 0.7 in data set [1] (Caco-2, with Ver (concentration not stated), + Ver) and 7.7 in [1] (Caco-2, without Ver).
On to `Nc1ncnc2c1ncn2[C@@H]1O[C@H](COS(=O)(=O)NCC2=C(C(=O)O)N3C(=O)[C@@H](NC(=O)Cc4cccs4)[C@H]3SC2)[C@@H](O)[C@H]1O` [ceph-AMS], for which, in [2], the “Selective Index, HEK293t” value was roughly 3. The “Selective Index, Human T cell” value in data set [3] is reported as greater than 6. Besides, the “Selective Index, Set2” value in data set [4] is on record as roughly 64. Moreover, in data set [5], the “SET2 cell viability with Beta-lactamase supernatant” value was “significant decrease in cell viability”.
As for `NS(=O)(=O)OC[C@H]1O[C@@H](n2cnc3c(NC(=O)N[C@@H](CCC(=O)O)C(=O)O)ncnc32)[C@H](O)[C@@H]1O` [P-AMS, ((9-((2R,3R,4S,5R)-3,4-dihydroxy-5-((sulfamoyloxy)methyl)tetrahydrofuran-2-yl)-9H-purin-6-yl)carbamoyl)-L-glutamic acid], the “activation of prodrug by cells expressing CPG intracellularly” value in data set [6] (HEK293T cells expressing CPG intracellularly) is “not activated”. The “cell death of cells expressing secreted or transmembrane CPG2” value in [6] (stably transfected HEK293T, cell-secreted and transmembrane CPG2, 48 hr, no-signal-peptide control did not) is reported as “significant cell death”. For the same molecule, the “stability in presence of endogenous glutamate carboxypeptidase” value in data set [7] is given as “remained stable”. For the same molecule, in data set [8], the toxicity in mice result was “non-toxic”. In [9], this molecule returned a half-life of 30 to 40 min.
